Assay [1] deals with crcB fluoride riboswitch. As to the kind of experiment: SPRINT assay with fluoride riboswitch. It is filed as biochemical, B. cereus. The method, then: SPRINT reactions. Pentauridine RNA oligonucleotides were labeled with carboxyfluorescein (FAM) or TEX 615 at the 5′-end and with Iowa Black FQ at the 3′-end. Fluorescence measurements were taken at wavelengths 490/525 nm (excitation/emission) when the FAM fluorophore was used. In reactions with flavin-containing ligands, TEX-labeled RNA oligos were used at the wavelengths 576/615 (excitation/emission). Fluorescence measurements were taken every 5 minutes.
For exemplary SPRINT assays, a master mix was first prepared and then mixed with the remaining reaction reagent components to yield a final reaction volume of 30 μL; fluorescent readings of the entire reaction volume were performed in Corning 384 Flat Bottom Black Polystyrol plates. This master mix (SPRINT buffer, 10×), for assays contemplated herein can include, but is not limited to: 700 mM Tris-HCl, pH 8.0, 700 mM NaCl, 1 mM EDTA, 140 mM β-mercaptoethanol, and 25 mM MgCl2. Aliquots of an exemplary 10× SPRINT buffer were stored at −20° C. and not allowed to undergo more than 10 freeze-thaw cycles.
The B. cereus crcB fluoride riboswitch is a regulatory switch that turns on expression of the fluoride efflux pump crcB via selectively binding fluoride over chloride. […] This may be explained in part by an observed inhibition of the assay at fluoride concentrations above 100 μM. […]

A further assay has as its target E. coli RNAP (Escherichia coli, UniProt P0A8T7+P0A8V2). As to the kind of experiment: Two-batch protocol: transcription in presence of fluoride, wash, then Cas13a detection. It is filed as biochemical. The note with it: fluoride riboswitch template, FIG. 6C. As to the method: In another exemplary method, two-batch methods included, 30 μL in vitro transcription reactions carried out as described above but without addition of Cas13a, crRNA, labeled RNA oligos, RNase inhibitor. Then, the reaction was washed three times with 500 μL ddH2O using an centrifugal filter (0.5 ml, 10 kDa cutoff). After concentrating the solution to approximately 20 μL, aliquots of 6 μL were taken and added to a 24 μL of a SHERLOCK reaction (described below).
The B. cereus crcB fluoride riboswitch is a regulatory switch that turns on expression of the fluoride efflux pump crcB via selectively binding fluoride over chloride. […] This may be explained in part by an observed inhibition of the assay at fluoride concentrations above 100 μM. To understand whether this effect stems from inhibition of the E. coli RNAP or inhibition of Cas13a, SHERLOCK reactions without RNAP were conducted at varying concentrations of sodium fluoride (FIG. 6A). […] To measure the response of the RNAP to fluoride, an exemplary two-batch protocol was developed (FIG. 6B) to first transcribe RNA in presence of fluoride, then wash out the fluoride and add the washed transcripts to Cas13a. […] The two-batch assay could also be used to wash out Cas13a-inhibiting compounds after transcription that would otherwise interfere with the assay.

Assay [2] addresses crcB fluoride riboswitch. The conditions noted are these: in-line probing; cited from earlier work.

These results are taken from patent publication US20230279482A1, “COMPOSITIONS, METHODS AND USES FOR QUANTIFYING TRANSCRIPTION AND BIOSENSING OF SMALL MOLECULES USING A NOVEL TYPE VI CRISPR-CAS ASSAY” (THE REGENTS OF THE UNIVERSITY OF COLORADO, A BODY CORPORATE, priority 2020, published 2023).

Sequence of E. coli RNAP (P0A8V2 whole entry): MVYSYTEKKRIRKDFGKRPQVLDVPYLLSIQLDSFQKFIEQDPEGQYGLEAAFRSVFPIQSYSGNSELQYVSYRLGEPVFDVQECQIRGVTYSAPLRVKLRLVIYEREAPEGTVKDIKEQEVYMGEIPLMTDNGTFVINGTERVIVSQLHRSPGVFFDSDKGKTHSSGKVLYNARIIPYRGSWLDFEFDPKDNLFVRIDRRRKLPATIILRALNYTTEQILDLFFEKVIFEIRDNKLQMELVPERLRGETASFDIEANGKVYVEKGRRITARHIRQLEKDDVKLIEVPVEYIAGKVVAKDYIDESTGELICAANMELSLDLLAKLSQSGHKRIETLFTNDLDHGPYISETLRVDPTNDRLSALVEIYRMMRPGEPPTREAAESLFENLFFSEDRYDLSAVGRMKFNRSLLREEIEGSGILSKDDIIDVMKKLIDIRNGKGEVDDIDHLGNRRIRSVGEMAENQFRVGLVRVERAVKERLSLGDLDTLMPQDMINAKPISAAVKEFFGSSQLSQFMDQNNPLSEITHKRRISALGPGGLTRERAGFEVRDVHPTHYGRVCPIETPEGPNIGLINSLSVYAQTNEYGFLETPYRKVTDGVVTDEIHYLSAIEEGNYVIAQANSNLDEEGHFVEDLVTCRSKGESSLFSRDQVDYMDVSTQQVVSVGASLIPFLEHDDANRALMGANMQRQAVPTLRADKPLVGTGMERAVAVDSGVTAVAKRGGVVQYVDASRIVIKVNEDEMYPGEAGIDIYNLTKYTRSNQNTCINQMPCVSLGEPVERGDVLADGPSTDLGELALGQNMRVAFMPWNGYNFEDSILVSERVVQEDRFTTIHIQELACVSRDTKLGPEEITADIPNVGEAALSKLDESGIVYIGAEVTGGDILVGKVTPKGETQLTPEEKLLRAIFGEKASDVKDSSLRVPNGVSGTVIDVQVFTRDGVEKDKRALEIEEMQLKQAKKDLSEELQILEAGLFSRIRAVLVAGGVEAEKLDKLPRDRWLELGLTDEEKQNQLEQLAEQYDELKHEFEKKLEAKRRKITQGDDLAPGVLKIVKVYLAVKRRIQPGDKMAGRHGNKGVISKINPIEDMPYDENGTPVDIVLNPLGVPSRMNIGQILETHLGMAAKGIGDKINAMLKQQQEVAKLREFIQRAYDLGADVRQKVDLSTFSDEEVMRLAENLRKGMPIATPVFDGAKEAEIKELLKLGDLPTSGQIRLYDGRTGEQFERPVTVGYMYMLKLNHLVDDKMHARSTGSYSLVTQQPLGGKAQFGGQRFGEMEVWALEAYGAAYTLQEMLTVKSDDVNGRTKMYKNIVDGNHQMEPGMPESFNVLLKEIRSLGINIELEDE
Sequence of E. coli RNAP (P0A7Z4 whole entry, further chain): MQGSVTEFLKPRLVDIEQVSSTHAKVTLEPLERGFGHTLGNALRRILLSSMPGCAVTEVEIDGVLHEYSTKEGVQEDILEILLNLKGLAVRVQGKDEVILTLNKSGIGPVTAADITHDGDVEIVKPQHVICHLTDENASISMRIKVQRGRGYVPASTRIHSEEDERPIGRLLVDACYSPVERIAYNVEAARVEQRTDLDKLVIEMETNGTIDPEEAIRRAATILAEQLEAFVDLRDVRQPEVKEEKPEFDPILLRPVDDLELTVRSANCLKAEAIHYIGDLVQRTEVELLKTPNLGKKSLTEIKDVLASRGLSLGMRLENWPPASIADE
Sequence of E. coli RNAP (P0A800 whole entry, further chain): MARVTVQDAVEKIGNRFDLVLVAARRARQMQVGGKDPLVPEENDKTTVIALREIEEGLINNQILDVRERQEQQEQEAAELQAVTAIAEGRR
Sequence of E. coli RNAP (P0A8T7 whole entry): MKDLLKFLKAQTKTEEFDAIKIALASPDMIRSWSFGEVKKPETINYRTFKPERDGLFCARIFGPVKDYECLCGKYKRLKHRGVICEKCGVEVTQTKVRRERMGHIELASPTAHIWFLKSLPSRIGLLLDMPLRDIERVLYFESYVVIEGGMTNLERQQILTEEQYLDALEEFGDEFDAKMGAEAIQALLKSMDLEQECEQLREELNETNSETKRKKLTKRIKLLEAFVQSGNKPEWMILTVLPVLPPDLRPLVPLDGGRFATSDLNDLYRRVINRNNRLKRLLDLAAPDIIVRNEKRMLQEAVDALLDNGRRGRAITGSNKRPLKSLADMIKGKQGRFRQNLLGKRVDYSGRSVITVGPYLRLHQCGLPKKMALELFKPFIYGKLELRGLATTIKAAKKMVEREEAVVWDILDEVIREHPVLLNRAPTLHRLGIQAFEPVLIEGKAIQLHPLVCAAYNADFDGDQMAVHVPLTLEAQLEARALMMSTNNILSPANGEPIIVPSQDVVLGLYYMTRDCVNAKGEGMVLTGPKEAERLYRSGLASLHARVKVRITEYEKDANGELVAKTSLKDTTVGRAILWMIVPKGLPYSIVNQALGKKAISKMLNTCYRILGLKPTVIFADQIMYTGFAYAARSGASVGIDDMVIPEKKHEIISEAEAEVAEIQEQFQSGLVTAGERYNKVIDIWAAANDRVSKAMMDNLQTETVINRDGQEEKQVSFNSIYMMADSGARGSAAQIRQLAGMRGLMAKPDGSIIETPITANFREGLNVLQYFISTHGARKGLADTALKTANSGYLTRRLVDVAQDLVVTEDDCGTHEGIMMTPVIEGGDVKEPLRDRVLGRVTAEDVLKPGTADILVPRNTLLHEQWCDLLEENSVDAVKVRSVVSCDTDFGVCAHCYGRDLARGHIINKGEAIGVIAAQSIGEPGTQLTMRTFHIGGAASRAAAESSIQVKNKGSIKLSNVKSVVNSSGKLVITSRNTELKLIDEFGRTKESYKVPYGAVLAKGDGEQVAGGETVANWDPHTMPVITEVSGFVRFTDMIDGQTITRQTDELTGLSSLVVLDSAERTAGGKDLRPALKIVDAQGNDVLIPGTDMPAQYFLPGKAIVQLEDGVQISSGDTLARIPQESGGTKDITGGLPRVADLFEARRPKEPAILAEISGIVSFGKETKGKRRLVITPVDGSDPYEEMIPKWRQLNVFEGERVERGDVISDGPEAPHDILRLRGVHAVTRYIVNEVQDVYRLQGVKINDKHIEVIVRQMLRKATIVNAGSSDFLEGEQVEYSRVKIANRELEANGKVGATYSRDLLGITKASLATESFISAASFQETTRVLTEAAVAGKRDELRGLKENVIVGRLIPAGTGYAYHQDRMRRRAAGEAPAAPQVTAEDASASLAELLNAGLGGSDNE

As a reminder, the Kd is the equilibrium constant for the complex coming apart. `[F-].[Na+]` [fluoride, sodium fluoride]: the EC50 in the assay with crcB fluoride riboswitch [1] (FIG. 4C, read-out: T50 value) was determined as 11 ± 1 µM. Further, in the assay with crcB fluoride riboswitch [1] (one-batch SPRINT), the “fluoride concentration at which inhibition of the assay is observed” value is “above 100 μM”. Besides, on E. coli RNAP, the “concentration that drastically reduced transcriptional activity” value is at least 125 µM and the “concentration up to which transcription is induced in a linear manner” value was at most 100 µM. Moreover, the Kd at crcB fluoride riboswitch [2] was around 60 µM.
